PMC5560435 (Journal of fluorine chemistry, 2017)
Like-named read-outs stand apart in the source and are kept apart here.

Tests used:
[1] = system: CSC-enriched (CD133++) HCT-116 human colon cancer cell line; details: cited from earlier work
[2] = system: MCF7-S human breast carcinoma; details: read-out: IC50 MCF7-S (breast); 72 h drug exposure; cited from earlier work
[3] = system: NCI/ADR multidrug-resistant human ovarian carcinoma; details: cited from earlier work; for R/S resistance factor: (IC50 NCI/ADR)/(IC50 MCF7-S); for IC50: read-out: IC50 NCI/ADR (ovarian), 72 h drug exposure
[4] = system: HT-29 human colon cancer cell line; details: read-out: IC50 HT-29 (colon); 72 h drug exposure; cited from earlier work
[5] = system: PANC-1 human pancreatic cancer cell line; details: read-out: IC50 PANC-1 (pancreatic); 72 h drug exposure; cited from earlier work
CYP 3A4 = CYP 3A4 in humans; cited from earlier work
[6] = system: microtubule protein (tubulin); details: microtubule protein 1 mg/mL, 37 °C, Drug 10 μM; cited from earlier work
microtubules [7] = test: Binding to microtubules, fluorescent ligand displacement method; details: from Table 4
tubulin [8] = test: Critical concentration of tubulin for microtubule assembly; format: biochemical; details: from Table 3
[9] = system: CSC-enriched (CD133++) HCT-116 human colon cancer cell line; test: Cytotoxicity against CSC-enriched HCT-116; format: cell-based; details: CSC-enriched HCT-116, from Table 2
microtubules [10] = details: cited from earlier work
tubulin [11] = details: cited from earlier work

N.N.[Cl][Pt][Cl] [cisplatin]
IC50 [1]: 4540 nM

CC(=O)O[C@@]12CO[C@@H]1C[C@H](O)[C@@]1(C)C(=O)[C@H](OC(=O)C3CC3)C3=C(C)[C@@H](OC(=O)[C@H](O)[C@H](C=C(F)F)NC(=O)OC(C)(C)C)C[C@@](O)([C@@H](OC(=O)c4cccc(N=[N+]=[N-])c4)[C@H]21)C3(C)C [SB-T-12852-3]
IC50 [2]: 0.092 nM
R/S resistance factor [3]: 4.9
IC50 [3]: 0.45 nM

COC(=O)O[C@H]1C(=O)[C@@]2(C)C([C@H](OC(=O)c3cccc(Cl)c3)[C@]3(O)C[C@H](OC(=O)[C@H](O)[C@H](C=C(F)F)NC(=O)OC(C)(C)C)C(C)=C1C3(C)C)[C@]1(OC(C)=O)CO[C@@H]1C[C@@H]2O (some centres unmarked) [SB-T-12855-4]
IC50 [2]: 0.099 nM
R/S resistance factor [3]: 12
IC50 [3]: 1.16 nM

CN(Cc1cnc2nc(N)nc(N)c2n1)c1ccc(C(=O)N[C@@H](CCC(=O)O)C(=O)O)cc1 [methotrexate]
IC50 [1]: 32.7 ± 11.2 nM

CC[C@@]1(O)C(=O)OCc2c1cc1n(c2=O)Cc2cc3c(CN(C)C)c(O)ccc3nc2-1 [topotecan]
IC50 [1]: 451 ± 12 nM

COc1cccc2c1C(=O)c1c(O)c3c(c(O)c1C2=O)C[C@@](O)(C(=O)CO)C[C@@H]3O[C@H]1C[C@H](N)[C@H](O)[C@H](C)O1 [doxorubicin]
IC50 [1]: 78 ± 28.2 nM

CC(=O)O[C@@]12CO[C@@H]1C[C@H](O)[C@@]1(C)C(=O)[C@H](OC(=O)C3CC3)C3=C(C)[C@@H](OC(=O)[C@H](O)[C@H](C=C(F)F)NC(=O)OC(C)(C)C)C[C@@](O)([C@@H](OC(=O)c4ccccc4)[C@H]21)C3(C)C [SB-T-12852]
IC50 [2]: 0.12 nM
R/S resistance factor [3]: 50
IC50 [3]: 6 nM
IC50 [4]: 0.85 nM
IC50 [5]: 5.85 nM

CC(=O)O[C@@]12CO[C@@H]1C[C@H](O)[C@@]1(C)C(=O)[C@H](OC(=O)N(C)C)C3=C(C)[C@@H](OC(=O)[C@H](O)[C@H](C=C(C)C)NC(=O)OC(C)(C)C)C[C@@](O)([C@@H](OC(=O)c4ccccc4)C12)C3(C)C (some centres unmarked) [SB-T-1216]
IC50 [1]: 0.83 ± 0.05 nM
Primary metabolism (CYP 3A4): hydroxylation primarily at the two allylic methyl groups of the 3′-isobutenyl group

CCC(=O)O[C@H]1C(=O)[C@@]2(C)C([C@H](OC(=O)c3ccccc3)[C@]3(O)C[C@H](OC(=O)[C@H](O)[C@H](C=C(F)F)NC(=O)OC(C)(C)C)C(C)=C1C3(C)C)[C@]1(OC(C)=O)CO[C@@H]1C[C@@H]2O (some centres unmarked) [SB-T-12853]
IC50 [2]: 0.12 nM
R/S resistance factor [3]: 10
IC50 [3]: 1.2 nM
IC50 [4]: 0.34 nM
IC50 [5]: 0.65 nM
Rate of GTP-independent tubulin polymerization [6]: much faster than paclitaxel

CC(=O)O[C@H]1C(=O)[C@@]2(C)C([C@H](OC(=O)c3cccc(N=[N+]=[N-])c3)[C@]3(O)C[C@H](OC(=O)[C@H](O)[C@H](C=C(F)F)NC(=O)OC(C)(C)C)C(C)=C1C3(C)C)[C@]1(OC(C)=O)CO[C@@H]1C[C@@H]2O (some centres unmarked) [SB-T-12851-3]
IC50 [2]: 0.092 nM
R/S resistance factor [3]: 3.7
IC50 [3]: 0.34 nM

CC(=O)O[C@H]1C(=O)[C@@]2(C)[C@H]([C@H](OC(=O)c3ccccc3)[C@]3(O)C[C@H](OC(=O)[C@H](O)[C@@H](NC(=O)c4ccccc4)c4ccccc4)C(C)=C1C3(C)C)[C@]1(OC(C)=O)CO[C@@H]1C[C@@H]2O [paclitaxel, reference compound]
IC50 [1]: 33.8 ± 3.33 nM
IC50 [2]: 1.2 nM
R/S resistance factor [3]: 250
IC50 [3]: 300 nM
IC50 [4]: 3.6 nM
IC50 [5]: 25.7 nM

CC(=O)O[C@@]12CO[C@@H]1C[C@H](O)[C@@]1(C)C(=O)[C@H](OC(=O)C3CC3)C3=C(C)[C@@H](OC(=O)[C@H](O)[C@H](C=C(F)F)NC(=O)OC(C)(C)C)C[C@@](O)([C@@H](OC(=O)c4cccc(F)c4)[C@H]21)C3(C)C [SB-T-12852-2]
IC50 [2]: 0.071 nM
R/S resistance factor [3]: 24
IC50 [3]: 1.72 nM

COC(=O)O[C@H]1C(=O)[C@@]2(C)C([C@H](OC(=O)c3cccc(N=[N+]=[N-])c3)[C@]3(O)C[C@H](OC(=O)[C@H](O)[C@H](C=C(F)F)NC(=O)OC(C)(C)C)C(C)=C1C3(C)C)[C@]1(OC(C)=O)CO[C@@H]1C[C@@H]2O (some centres unmarked) [SB-T-12855-3]
IC50 [2]: 0.078 nM
R/S resistance factor [3]: 5.3
IC50 [3]: 0.4 nM

COC(=O)O[C@H]1C(=O)[C@@]2(C)C([C@H](OC(=O)c3cccc(OC)c3)[C@]3(O)C[C@H](OC(=O)[C@H](O)[C@H](C=C(F)F)NC(=O)OC(C)(C)C)C(C)=C1C3(C)C)[C@]1(OC(C)=O)CO[C@@H]1C[C@@H]2O (some centres unmarked) [SB-T-12855-1]
IC50 [2]: 0.078 nM
R/S resistance factor [3]: 6.4
IC50 [3]: 0.5 nM

CC(=O)O[C@H]1C(=O)[C@@]2(C)C([C@H](OC(=O)c3ccccc3)[C@]3(O)C[C@H](OC(=O)[C@H](O)[C@H](C=C(F)F)NC(=O)OC(C)(C)C)C(C)=C1C3(C)C)[C@]1(OC(C)=O)CO[C@@H]1C[C@@H]2O (some centres unmarked) [SB-T-12851]
IC50 [2]: 0.099 nM
R/S resistance factor [3]: 9.6
IC50 [3]: 0.95 nM
IC50 [4]: 0.41 nM
IC50 [5]: 1.19 nM
Rate of GTP-independent tubulin polymerization [6]: much faster than paclitaxel

CC(=O)O[C@@]12CO[C@@H]1C[C@H](O)[C@@]1(C)C(=O)[C@H](OC(=O)N(C)C)C3=C(C)[C@@H](OC(=O)[C@H](O)[C@H](C=C(F)F)NC(=O)OC(C)(C)C)C[C@@](O)([C@@H](OC(=O)c4ccccc4)C12)C3(C)C (some centres unmarked) [SB-T-12854]
IC50 [1]: 0.14 ± 0.05 nM
IC50 [2]: 0.13 nM
times stronger binding to microtubules than paclitaxel (microtubules [7]): ca. 10 times
Potency in inducing tubulin assembly relative to SB-T-1214 (tubulin [8]): three times higher potency than SB-T-1214
R/S resistance factor [3]: 33
IC50 [3]: 4.3 nM
IC50 [4]: 0.46 nM
times higher potency than conventional anticancer drugs [9]: 230-33,000 times
Binding constant with microtubules (microtubules [10]; 26 °C): 15±3 x10^7 M^−1
Binding constant with microtubules (microtubules [10]; 37 °C): 10±1 x10^7 M^−1
IC50 [5]: 1.58 nM
Rate of GTP-independent tubulin polymerization [6]: much faster than paclitaxel
Critical concentration of tubulin required for microtubule assembly (tubulin [11]): 0.3 ± 0.1 µM

COc1cccc(C(=O)O[C@H]2[C@@H]3[C@]4(OC(C)=O)CO[C@@H]4C[C@H](O)[C@@]3(C)C(=O)[C@H](OC(=O)C3CC3)C3=C(C)[C@@H](OC(=O)[C@H](O)[C@H](C=C(F)F)NC(=O)OC(C)(C)C)C[C@]2(O)C3(C)C)c1 [SB-T-12852-1]
IC50 [2]: 0.092 nM
R/S resistance factor [3]: 5.2
IC50 [3]: 0.48 nM

CC(=O)O[C@@]12CO[C@@H]1C[C@H](O)[C@@]1(C)C(=O)[C@H](OC(=O)C3CC3)C3=C(C)[C@@H](OC(=O)[C@H](O)[C@H](C=C(C)C)NC(=O)OC(C)(C)C)C[C@@](O)([C@@H](OC(=O)c4ccccc4)[C@H]21)C3(C)C [SB-T-1214]
IC50 [1]: 0.28 ± 0.1 nM
Primary metabolism (CYP 3A4): hydroxylation primarily at the two allylic methyl groups of the 3′-isobutenyl group
Binding constant with microtubules (microtubules [10]; 26 °C): 12±2 x10^7 M^−1
Binding constant with microtubules (microtubules [10]; 37 °C): 7±1 x10^7 M^−1
Critical concentration of tubulin required for microtubule assembly (tubulin [11]): 0.9 ± 0.2 µM
